Laboratory results taken from US9578880B2, “Acetyl co-enzyme A carboxylase herbicide resistant plants” (Colorado Wheat Research Foundation, Inc., priority 2011, dated 2017).

Assays:
[1] = test system: non-mutant Hatcher winter wheat (Accession 0); test: Cross-resistance study, plant survival after other ACCase herbicides (non-mutant check); format: in vivo, Triticum aestivum L.; conditions: Accession 0 (non-mutant check); clethodim 65, sethoxydim 264, fluazifop 361 g ai ha^-1, clethodim + 10.5 g ai ha^-1 quizalofop; 28 DAT
Procedure: (§1) A cross-resistance study was conducted within the ACCase herbicide mode of action using herbicides normally lethal to wheat. Clethodim, sethoxydim, and fluazifop were used at rates of 65, 264, and 361 g ai ha^−1, plus a treatment of clethodim and 10.5 g ai ha^−1 quizalofop. Seven DAT the tops of plants were cut off above the newest above-ground growing point. Binomial evaluation of plant survival was performed 28 DAT. Tolerance of quizalofop mutants to clethodim and sethoxydim was low (Table 1). The presence of any cross tolerance presents evidence that combining multiple homologous resistant ACCase genes into a single plant could lead to resistance to additional herbicides. At this stage only a third of the total ACCase in the plant would have a mutation and contain tolerance to ACCase inhibitors if the mutation is target-site-based.

[2] = test system: quizalofop tolerant mutant wheat accessions; test: Cross-resistance study, plant survival after other ACCase herbicides (quizalofop tolerant mutants); format: in vivo, Triticum aestivum L.; conditions: 28 DAT
Procedure: as §1

[3] = test system: quizalofop-tolerant wheat accessions vs non-mutant Hatcher wheat; test: Visual evaluation of injury to quizalofop; format: in vivo, Triticum aestivum L.; conditions: 21.05 g ai ha^-1; 28 DAT; nearly all of 18 quizalofop-tolerant accessions
Procedure: 18 quizalofop-tolerant accessions were treated with 21.05 g ai ha^−1 quizalofop, a discriminating dose based on previous studies. Plants were evaluated 28 days after treatment (DAT) for visible injury to quizalofop on a scale of 0 to 100%, with 0 being no injury and 100 being complete desiccation. Nearly all accessions evaluated in this study appeared more tolerant to quizalofop than non-mutant Hatcher wheat (FIG. 5). The accessions contained few completely dead plants, with the exception of the one accession not different than the background.

[4] = test system: ACCase of non-mutagenized Hatcher winter wheat; test: In-vitro ACCase enzyme assay; format: biochemical, Triticum aestivum L.; conditions: 0.1, 1, 10, 100 μM
Procedure: (§2) An in-vitro enzyme assay was conducted to observe ACCase in conjunction with quizalofop directly to determine if the presence of ACCase mutations decreases the ability of herbicides to inhibit ACCase activity. Four quizalofop concentrations of 0.1, 1, 10, and 100 μM were included in the assay along with a non-treated control. The experiment included four accessions which included a representative from the three mutations detected and non-mutagenized wheat. […] Calculated at the I25 level, the resistant to susceptible value for the A genome was 4.57, the B genome was 3.57 and the D genome was 10.86.

[5] = test system: ACCase, A genome nucleotide substitution (Ala2004Val); test: In-vitro ACCase enzyme assay; format: biochemical, Triticum aestivum L.
Procedure: as §2

[6] = test system: ACCase, B genome nucleotide substitution (Ala2004Val); test: In-vitro ACCase enzyme assay; format: biochemical, Triticum aestivum L.
Procedure: as §2

[7] = test system: ACCase, D genome nucleotide substitution (Ala2004Val); test: In-vitro ACCase enzyme assay; format: biochemical, Triticum aestivum L.; conditions: for ACCase tolerance compared with background: D genome substitution
Procedure: as §2

[8] = Accession 1, clethodim 65, sethoxydim 264, fluazifop 361 g ai ha^-1, clethodim + 10.5 g ai ha^-1 quizalofop

Structure (SMILES)	survival after application of ACCase herbicide [1] [%]	survival after application of ACCase herbicide [2, 8] [%]	survival after application of ACCase herbicide ([2]; Accession 2, same rates) [%]	survival after application of ACCase herbicide ([2]; Accession 3, same rates) [%]	survival after application of ACCase herbicide ([2]; Accession 4, same rates) [%]	survival after application of ACCase herbicide ([2]; Accession 5, same rates) [%]	survival after application of ACCase herbicide ([2]; Accession 6, same rates) [%]	survival after application of ACCase herbicide ([2]; Accession 7, same rates) [%]	survival after application of ACCase herbicide ([2]; Accession 8, same rates) [%]	survival after application of ACCase herbicide ([2]; Accession 9, same rates) [%]	survival after application of ACCase herbicide ([2]; Accession 10, same rates) [%]	survival after application of ACCase herbicide ([2]; Accession 11, same rates) [%]	survival after application of ACCase herbicide ([2]; Accession 12, same rates) [%]	survival after application of ACCase herbicide ([2]; Accession 13, same rates) [%]	survival after application of ACCase herbicide ([2]; Accession 14, same rates) [%]	survival after application of ACCase herbicide ([2]; Accession 15, same rates) [%]	survival after application of ACCase herbicide ([2]; Accession 16, same rates) [%]	survival after application of ACCase herbicide ([2]; Accession 17, same rates) [%]	also measured
CCSC(C)CC1CC(=O)C(/C(CC)=N/OC/C=C/Cl)=C(O)C1 (stereo not shown) [Clethodim, clethodim]	0	10	0	0	0	0	0	0	25	17	0	0	17	0	0	0	0	0	–
CC(Oc1ccc(Oc2ccc(C(F)(F)F)cn2)cc1)C(=O)O (stereo not shown) [Fluazifop, fluazifop]	0	0	0	0	0	0	0	0	0	0	0	0	0	0	0	0	0	0	–
CCC/C(=N\OCC)C1=C(O)CC(CC(C)SCC)CC1=O (stereo not shown) [Sethoxydim, sethoxydim]	0	0	0	0	0	0	0	0	0	0	0	8	8	0	0	0	0	0	Tolerance of quizalofop mutants (cross-resistance) ([2]; clethodim 65, sethoxydim 264 g ai ha^-1): low
CC(Oc1ccc(Oc2cnc3cc(Cl)ccc3n2)cc1)C(=O)O (stereo not shown) [quizalofop]	–	–	–	–	–	–	–	–	–	–	–	–	–	–	–	–	–	–	visible injury, tolerance of accessions compared with non-mutant Hatcher wheat [3]: more tolerant; sensitivity of ACCase compared with the mutant accessions [4]: greater sensitivity; ACCase tolerance compared with background ([5]; 100 μM, A genome substitution): higher than background tolerance; resistant to susceptible value calculated at the I25 level ([5]; A genome mutant vs non-mutagenized wheat): 4.57; ACCase tolerance compared with background ([6]; 10 μM, B genome substitution): higher than background levels of tolerance; resistant to susceptible value calculated at the I25 level ([6]; B genome mutant vs non-mutagenized wheat): 3.57; ACCase tolerance compared with background ([7]; 10 μM): higher than background levels of tolerance; ACCase tolerance compared with background ([7]; 100 μM): higher than background tolerance; resistant to susceptible value calculated at the I25 level ([7]; D genome mutant vs non-mutagenized wheat): 10.86
